This data set is described as follows: in vivo. Type of data set: in vivo, Sprague–Dawley rats. As to conditions: for CL/F / half-life / AUC / Cmax / MRT / Tmax / AUC(0-t) / Vd/F: male, Sprague-Dawley, rat, in vivo; for Vd/F: read-out: Vz/F; for Detection in rat plasma after D7 administration: LC-MS/MS, sampling up to 24 h. As to the method: Male Sprague–Dawley rats (∼250 g) purchased from Sino-British Sippr/BK Lab Animal, Ltd. (Shanghai, China) were housed in air-conditioned animal quarters with alternating 12 h light/dark cycles at a room temperature of 22°C±2°C and a relative humidity of 50%±10%. Commercial rat chow and water were given ad libitum. The animal studies were approved by the Review Committee of Animal Care and Use at Longhua Hospital. The rats were fasted overnight (∼12 h) and had free access to water throughout the experimental period. Five rats were given a single oral dose of D7 at 4 mL/kg, which was designed based on the clinical dosage for human. Blood samples (∼150 µL) were collected via a jugular vein catheter from non-restrained, non-sedated animals into heparinized tubes before and at 0.083, 0.25, 0.5, 1, 2, 3, 4, 6, 8, 10, and 24 h after administration. After centrifugation at 4000×g for 10 min at 4°C, duplicates of 25 µL of the plasma samples were obtained and were immediately stored at −80°C until analysis. After the experiments, the rats were sacrificed with ether anesthesia.
For protein precipitation, 75 µL of MeOH were added to 25 µL of plasma samples. After vortexing for 2 min and centrifugation for 5 min at 13000×g at 4°C, 80 µL aliquots of the supernatant liquid were transferred into autosampler vials for LC-MS/MS analysis.
The LC-MS/MS system consisted of an Agilent HPLC 1200 series system and a CTC autosampler coupled with an API 4000 triple-quadrupole mass spectrometer equipped with a TurboIonSpray ion source. The LC-MS/MS system was controlled using the Analyst 1.4.2 software, which also acquired and processed the data.
LC separation was performed on a 5 µm Agel Luna C18 (50 mm×2.1 mm, i.d.) at room temperature with a 2 µm filter used before the analytical column. The LC mobile phase was H2O containing 0.1% formic acid (A) and MeOH (B) at a flow rate of 0.30 mL/min. A gradient elution program was used as following: 0→2.5 min, B% 60→90; 2.5→2.6 min, B% 90→60; and 2.6→4 min, B% 60→60. The injection volume was 10 µL and the temperature of the autosampler was set at 4°C to keep the samples stable during the analysis.
The tuning solutions (10 µg/mL) of the individual analytes were prepared by diluting the corresponding primary stock solutions with 50% MeOH. The tuning solutions were delivered at 5.0 µL/min using a syringe pump and combined through a PEEK tee-connector with the mobile phase delivered at 0.3 mL/min with the LC pump. The instrumental parameters of the MS spectrometers in positive ion ESI mode were optimized to achieve maximum ionization of the analyte molecules and the generation of characteristic fragment ions. […] The scan time for each pair was set to 50 ms. The operating parameters of the mass spectrometer included compound-dependent and source-dependent considerations. The optimized source-dependent parameters consisted of the flow rates of curtain gas, gas 1, gas 2, collision gas (CAD), capillary temperature (TEM), and ion spray voltage. The compound-dependent parameters for the test compounds included the declustering potential (DP), entrance potential (EP), collision energy (CE), and collision cell exit potential (CXP).
Standard curves, intra-batch accuracy, and precision for the quantification of the 15 compounds in the rat plasma samples were constructed similarly. The accuracy was measured as the difference between the nominal value and the measured value, expressed as a percentage of the nominal value. Precision was expressed as the coefficient of variation (CV), i.e., the standard deviation divided by the mean multiplied by 100.
The plasma concentration–time data for D7 were analyzed with the WinNonlin 5.2.1 software (Pharsight, Mountain View, CA, USA) using a non-compartmental model. The peak plasma concentration (C max) and the corresponding time (T max) were directly obtained from the concentration data.

[1] abbreviates: SD rats, single oral D7 4 mL/kg, plasma.
Setting [2] is: SD rats, single oral D7 4 mL/kg, plasma, read-out: AUC0–24 h.
[3] abbreviates: SD rats, single oral D7 4 mL/kg.
The mark [4] stands for this setting: SD rats, single oral D7 4 mL/kg, plasma, non-compartmental, read-out: T1/2 (converted).
[5] abbreviates: SD rats, single oral D7 4 mL/kg, read-out: CL/F (converted).

By AUC is commonly meant the area under the concentration-time curve, a measure of exposure. Higher therefore signals more exposure. What is called Cmax is the maximum level reached in the sampled fluid or tissue. By MRT is commonly meant the average time that molecules of a dose stay in the body. Broadly, the Tmax is the time from dosing to the highest level.

Like-named read-outs stand apart in the source and are kept apart here.

Under setting [1], `COc1c2occc2cc2ccc(=O)oc12` [Xanthotoxin, xanthotoxin] returned an AUMCall of 1445±719 h·h·ng/mL, an AUMClast of 667±270 h·h·ng/mL, an AUC of 209 ± 89.5 ng·h/mL and a Cmax of 31.7 ± 9.55 ng/mL. Also, under setting [1], the mean residence time (MRT) was 4.06 ± 0.41 h and the time to peak (Tmax) stood at 1 h. For the same compound, under “po”, the CL/F is 9.6 mL/min/kg. In addition, the half-life (po, T1/2) was 4.56 ± 0.71 h. Further, under setting [2], the AUC(0-t) was determined as 162 ± 64.7 ng·h/mL. Moreover, the Vd/F under setting [3] came to 3.69 ± 1.52 L/kg.

Regarding `COC[C@@]12CC[C@H](OC)[C@]34C(C([C@H](OC)[C@H]13)[C@]1(OC(C)=O)[C@H]3[C@@H](OC(=O)c5ccccc5)[C@](O)(C[C@H]34)[C@@H](OC)[C@@H]1O)N(C)C2` [hypaconitine], under setting [3], the “Detection in rat plasma after D7 administration” value (from here on “Detection in rat plasma”) is on record as “not detected”.

Under setting [1], `O=c1ccc2cc3ccoc3cc2o1` [Psoralen, psoralen] came in with an AUMCall of 74305±51503 h·h·ng/mL, an AUMClast of 69918±49475 h·h·ng/mL, an AUC of 10200 ± 6000 ng·h/mL and a Cmax of 929 ± 431 ng/mL. Moreover, under setting [1], the mean residence time MRT is 6.71 ± 0.79 h and the time to peak (Tmax) is 6 h. The half-life under setting [4] is 3.18 ± 0.24 h. Further, the AUC(0-t) under setting [2] is 9980 ± 5960 ng·h/mL. In addition, the CL/F under setting [5] is 1.39 mL/min/kg. Under setting [3], the Vd/F amounted to 0.384 ± 0.227 L/kg.

As to `CC(C)=CCc1cc2c(cc1O)oc(=O)c1c3ccc(O)cc3oc21` [Psoralidin, psoralidin], under setting [3], the “Detection in rat plasma” value is “measureable” and the Vd/F stood at 5.87 ± 0.395 L/kg. Under setting [1], this compound returned an AUMCall of 2240±462 h·h·ng/mL, an AUMClast of 329±44 h·h·ng/mL, an area under the curve (AUC) of 64.5 ± 8.46 ng·h/mL and a Cmax of 2.57 ± 0.53 ng/mL. For the same compound, under setting [1], the MRT is 10.3 ± 0.39 h and the Tmax was 0.5 h. Where the note is “SD rats, single oral D7 4 mL/kg, plasma, non-compartmental”, this compound yielded a T1/2 of 23.7 ± 1.7 h. The half-life (po, SD rats, single oral D7 4 mL/kg, plasma, non-compartmental, read-out: T1/2 (converted)) is ~24 h. The AUC(0-t) (SD rats, single oral D7 4 mL/kg, plasma, read-out: AUClast) amounted to 31.9 ± 3.32 ng·h/mL. The CL/F under setting [5] was 2.88 mL/min/kg.

For the compound `CCN1C[C@]2(COC)[C@H](O)C[C@H](OC)[C@@]34[C@@H]5C[C@@]6(O)[C@H](OC(=O)c7ccccc7)[C@@H]5[C@@](OC(C)=O)([C@@H]([C@H](OC)[C@H]23)[C@@H]14)[C@@H](O)[C@@H]6OC` [aconitine], under setting [3], the “Detection in rat plasma” value is reported as “not detected”.

With `CCN1CC2(COC)C(O)CC(OC)C34C5CC6(O)C(OC)C(O)C(O)(C5C6OC(=O)c5ccccc5)C(C(OC)C23)C14` (stereo not shown) [Benzoylaconitine, benzoylaconine], the “Detection in rat plasma” value under setting [3] was “not detected”.

For the compound `COc1c2ccoc2cc2oc(=O)ccc12` [Bergapten, bergapten], under setting [3], the “Detection in rat plasma” value was “measureable” and the Vd/F turned out to be 2.93 ± 1.57 L/kg. Further, under setting [1], the AUMCall turned out to be 1270±958 h·h·ng/mL, the AUMClast is reported as 924±716 h·h·ng/mL, the area under the curve (AUC) worked out at 158 ± 77.9 ng·h/mL and the concentration peaked (Cmax) at 20.5 ± 7.22 ng/mL. Under setting [1], the MRT turned out to be 5.65 ± 2.16 h and the Tmax is 1 h. Also, the half-life under setting [4] was 4.14 ± 0.7 h. For the same compound, under setting [2], the AUC(0-t) was found to be 143 ± 73.2 ng·h/mL. The CL/F under setting [5] was 8.07 mL/min/kg.

Turning to `COCC12CN(C)C3C4C(OC)C1C3(C(OC)CC2O)C1CC2(O)C(OC)C(O)C4(OC(C)=O)C1C2OC(=O)c1ccccc1` (stereo not shown) [mesaconitine], the “Detection in rat plasma” value under setting [3] is recorded as “not detected”.

With `O=c1ccc2ccc3occc3c2o1` [Isopsoralen, isopsoralen], under setting [3], the “Detection in rat plasma” value was “measureable” and the Vd/F was determined as 0.308 ± 0.181 L/kg. Under setting [1], this compound displayed an AUMCall of 168803±119110 h·h·ng/mL, an AUMClast of 150025±99963 h·h·ng/mL, an exposure (AUC) of 21000 ± 12100 ng·h/mL and a Cmax of 2240 ± 824 ng/mL. For the same compound, under setting [1], the MRT was 7.13 ± 0.66 h and the Tmax is 6 h. Moreover, the half-life under setting [4] is 3.53 ± 1.03 h. Under setting [2], the AUC(0-t) was found to be 20400 ± 11500 ng·h/mL. Besides, the CL/F under setting [5] is 1.1 mL/min/kg.

The values are drawn from paper PMC3585395, “Material Basis of Chinese Herbal Formulas Explored by Combining Pharmacokinetics with Network Pharmacology” (PLoS ONE, 2013).
